Results taken from patent US6908908B2, “Biologically active 4H-benzo [1,4] oxazin-3-ones” (Ortho-McNeil Pharmaceutical, Inc., priority 2000, dated 2005).

Molecular target: T1, PPAR γ (Homo sapiens, UniProt P37231)
T1 construct: Following the challenge of the preadipocytes, cells may be lysed with lysis buffer; endogenous in cells; host or cells: preadipocytes
T1 sequence (P37231 1-505): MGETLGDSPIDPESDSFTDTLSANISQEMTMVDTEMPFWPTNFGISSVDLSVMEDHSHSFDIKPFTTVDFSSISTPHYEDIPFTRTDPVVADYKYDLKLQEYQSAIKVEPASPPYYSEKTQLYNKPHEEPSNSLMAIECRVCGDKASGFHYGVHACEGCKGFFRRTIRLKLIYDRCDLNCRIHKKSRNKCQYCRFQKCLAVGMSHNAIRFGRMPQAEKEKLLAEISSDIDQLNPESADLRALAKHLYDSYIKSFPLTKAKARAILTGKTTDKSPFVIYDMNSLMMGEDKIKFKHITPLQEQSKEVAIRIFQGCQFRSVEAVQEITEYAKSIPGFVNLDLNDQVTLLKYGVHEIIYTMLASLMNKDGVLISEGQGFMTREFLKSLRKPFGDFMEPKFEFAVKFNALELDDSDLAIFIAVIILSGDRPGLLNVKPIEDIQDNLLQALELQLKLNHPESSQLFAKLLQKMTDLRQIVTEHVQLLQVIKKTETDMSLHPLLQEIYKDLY
Experiment: aP2 Assay for Agonist (induction of aP2 mRNA production); on Agonist Intrinsic Activity: test concentration or dose not given here
Type: cell-based
Conditions: fold increase over vehicle in induction of aP2 mRNA production; for PPAR γ Agonist Intrinsic Activity: Table 3 (stereoisomers)

Compound	Agonist Intrinsic Activity (Table 1)	further results
CC(=O)CCCCN1C(=O)C(CCOc2ccccc2CC(=O)O)Oc2ccccc21 (stereo not drawn) [Compound 78, Benzeneacetic acid, 2-[2-[3,4-dihydro-3-oxo-4-(5-oxohexyl)-2H-1,4-benzoxazin-2-yl]ethoxy]-]	11.1	–
CON=C(C)CCCCN1C(=O)C(CCOc2ccccc2CC(=O)O)Oc2ccccc21 (stereo not drawn) [Compound 80]	2.8	–
CC(O)CCCCN1C(=O)C(CCOc2ccccc2CC(=O)O)Oc2ccccc21 (stereo not drawn) [Compound 82, Benzeneacetic acid, 2-[2-[3,4-dihydro-4-(5-hydroxyhexyl)-3-oxo-2H-1,4-benzoxazin-2-yl]ethoxy]-]	4.9	–
CC(C)(O)CCCCN1C(=O)C(CCOc2ccccc2CC(=O)O)Oc2ccccc21 (stereo not drawn) [Compound 84]	3.5	–
CC(=O)NC(C)CCCCN1C(=O)C(CCOc2ccccc2CC(=O)O)Oc2ccccc21 (stereo not drawn) [Compound 85]	24	–
CC(F)(F)CCCCN1C(=O)C(CCOc2ccccc2CC(=O)O)Oc2ccccc21 (stereo not drawn) [Compound 87]	37.9	–
O=C(O)Cc1ccccc1OCCC1Oc2ccccc2N(CCCCCCF)C1=O (stereo not drawn) [Compound 91, Benzeneacetic acid, 2-[2-[4-(6-fluorohexyl)-3,4-dihydro-3-oxo-2H-1,4-benzoxazin-2-yl]ethoxy]-]	64.9	–
O=C(O)Cc1ccccc1OCCC1Oc2ccccc2N(CCCCCCO)C1=O (stereo not drawn) [Compound 95]	36.9	–
CC(C)(CN)CCCCN1C(=O)C(CCOc2ccccc2CC(=O)O)Oc2ccccc21 (stereo not drawn) [Compound 96]	27.5	–
NC(=O)CCCCCN1C(=O)C(CCOc2ccccc2CC(=O)O)Oc2ccccc21 (stereo not drawn) [Compound 98, Benzeneacetic acid, 2-[2-[4-(6-amino-6-oxohexyl)-3,4-dihydro-3-oxo-2H-1,4-benzoxazin-2-yl]ethoxy]-]	28	–
O=C(O)CCCCCN1C(=O)C(CCOc2ccccc2CC(=O)O)Oc2ccccc21 (stereo not drawn) [Compound 101, 2H-1,4-Benzoxazine-4-hexanoic acid, 2-[2-[2-(carboxymethyl)phenoxy]ethyl]-3,4-dihydro-3-oxo-]	3.0	–
CC(C)(CCCCN1C(=O)C(CCOc2ccccc2CC(=O)O)Oc2ccccc21)C(=O)O (stereo not drawn) [Compound 102]	4.1	–
CC(C)(C#N)CCCCN1C(=O)C(CCOc2ccccc2CC(=O)O)Oc2ccccc21 (stereo not drawn) [Compound 104]	26.5	–
CC(F)(F)CCCCCN1C(=O)C(CCOc2ccccc2CC(=O)O)Oc2ccccc21 (stereo not drawn) [Compound 106]	40.8	–
CC(=O)CCCCCN1C(=O)C(CCOc2ccccc2CC(=O)O)Oc2ccccc21 (stereo not drawn) [Compound 108]	37.3	–
O=C(O)Cc1ccccc1OCCC1Oc2ccccc2N(CCCCCCCF)C1=O (stereo not drawn) [Compound 110]	64.5	–
O=C(O)Cc1ccccc1OCCC1Oc2ccccc2N(CCCCCCCO)C1=O (stereo not drawn) [Compound 112]	74.5	–

Compound	Agonist Intrinsic Activity (Table 1)	further results
O=C(O)Cc1ccccc1OCCC1Oc2ccccc2N(CCCCCF)C1=O (stereo not drawn) [Compound 113]	29.1	–
COCCCCN1C(=O)C(CCOc2ccccc2CC(=O)O)Oc2ccccc21 (stereo not drawn) [Compound 114]	50.7	–
CCOCCCN1C(=O)C(CCOc2ccccc2CC(=O)O)Oc2ccccc21 (stereo not drawn) [Compound 115]	40.9	–
CCCSCCN1C(=O)C(CCOc2ccccc2CC(=O)O)Oc2ccccc21 (stereo not drawn) [Compound 116]	4.0	–
CCCOCCN1C(=O)C(CCOc2ccccc2CC(=O)O)Oc2ccccc21 (stereo not drawn) [Compound 117]	45.9	–
COC(=O)Cc1ccccc1OCCC1Oc2ccccc2N(c2ccc(Cl)c(Cl)c2)C1=O (stereo not drawn) [Compound 118]	0.9	–
O=C(O)Cc1ccccc1OCCC1Oc2ccccc2N(c2ccc(Cl)c(Cl)c2)C1=O (stereo not drawn) [Compound 119]	22.8	–
CCCCCCN1C(=O)C(CCOc2ccc(SC(C)(C)C(=O)O)cc2)Oc2ccccc21 (stereo not drawn) [Compound 121]	16.13	–
CCCNC(=O)CN1C(=O)C(CCOc2ccccc2CC(=O)O)Oc2ccccc21 (stereo not drawn) [Compound 122]	40.83	–
CNC(=O)CCCN1C(=O)C(CCOc2ccccc2CC(=O)O)Oc2ccccc21 (stereo not drawn) [Compound 124]	4.00	–
CC(=O)NCCCCCCN1C(=O)C(CCOc2ccccc2CC(=O)O)Oc2ccccc21 (stereo not drawn) [Compound 125]	10.78	–
CS(=O)(=O)NCCCCCCN1C(=O)C(CCOc2ccccc2CC(=O)O)Oc2ccccc21 (stereo not drawn) [Compound 126, Benzeneacetic acid, 2-[2-[3,4-dihydro-3-oxo-4-(6-methanesulfonamidohexyl)-2H-1,4-benzoxazin-2-yl]ethoxy]-]	12.96	–
CCCCCCN1C(=O)C(C)(CCOc2ccccc2CC(=O)O)Oc2ccccc21 (stereo not drawn) [Compound 128, Benzeneacetic acid, 2-[2-(4-hexyl-3,4-dihydro-2-methyl-3-oxo-2H-1,4-benzoxazin-2-yl)ethoxy]-]	–	Agonist Intrinsic Activity (Table 2): 2.5
CCCCCCN1C(=O)C(CCOc2ccc(OC(C)(C)C(=O)O)cc2)Oc2ccccc21 (stereo not drawn) [Compound 129]	–	PPAR γ Agonist Intrinsic Activity: 12.62
CCCCCCN1C(=O)[C@](C)(CCOc2ccccc2CC(=O)O)Oc2ccccc21 [Compound 130]	–	PPAR γ Agonist Intrinsic Activity: 91.3
CC1(CCOc2ccccc2CC(=O)O)Oc2ccccc2N(CCCCCCF)C1=O (stereo not drawn) [Compound 131]	–	PPAR γ Agonist Intrinsic Activity: 36.4
